Values joined by “and” are separate entries in the source; they are usually repeats but may differ in a detail not shown here. Identical values can stand only once.
Key:
[1] = cited from earlier work
[2] = test system: daphnia; assay: Acute daphnia immobilization EC50, OECD 202; assay type: in vivo; conditions: for times less toxic for daphnia compared to a fatty amine ethoxylate: in vivo
Source text: (§1) The low toxicity of coconut fatty acid copolymers with glycerol is illustrated by the following table

[3] = test system: rabbits; assay: Eye irritation rabbits; conditions: rabbit, in vivo
[4] = Biodegradability
[5] = test system: Fish; assay: Fish toxicology LC50, OECD 203, 96 h; assay type: in vivo; conditions: for Fish toxicology LC50: OECD 203, 96 h; for times less toxic for fish compared to a fatty amine ethoxylate: in vivo
Source text: as §1

[6] = test system: rats; assay: Acute oral toxicology LD50 in rats; assay type: in vivo
[7] = 1,4-Dioxane content (carcinogen)
Source text: The inevitable presence of 1,4-dioxane in all ethoxylated products is the reason why all ethoxylates including coco amide ethoxylates were excluded from consideration in the product of the present invention.

[8] = test system: variety of weeds; assay: Extensive field tests in Brazil and South Africa versus standard 360 g/liter liquid formulation; assay type: in vivo; conditions: surfactant in the glyphosate formulation
Procedure: The product was extensively tested on the field. During eighteen months the soluble powder formulation was applied in different dosages on a variety of weeds in the state of Paraná, Brazil and in the province of […] in the Republic of South Africa and the results were compared with those obtained applying the standard product 360 g/liter liquid formulation side by side on the same fields.
More than one hundred field tests of the Soluble Powder were carried out. Each test consisted in applying different dosages of glyphosate acid on the field using the Soluble Powder object of the present invention and similar dosages of the standard 360 g/liter liquid formulation and comparing the results obtained side by side on the same field. Phytotoxicity of the weeds was measured by sampling and visual counting. All results were recorded and photographs taken before and after the tests.

Compound | times less toxic for daphnia compared to a fatty amine ethoxylate [2] [times] | Eye irritation rabbits [3] | Biodegradability [4] [%] | Fish toxicology LC50 [5] | times less toxic for fish compared to a fatty amine ethoxylate [5] [times] | further results
O=C(O)CNCP(=O)(O)O [Glyphosate, N-(phosphonomethyl)-glycine] | – | – | – | – | – | solubility in water [1]: insoluble
Coco amide propyl amine oxide | 100 | Irritant | >90 | 6 mg/l and >6 mg/l | 15 | –
Fatty amine ethoxylate [reference compound] | – | Serious eye | <60 | 0.42 mg/l | – | Acute daphnia immobilization EC50 ([2]; OECD 202): 0.46 µg/mL; Acute oral toxicology LD50 [6]: 200-2000 mg/kg; 1,4-Dioxane content (carcinogen) [7]: Up to 25,000 ppm
coco amide propyl betaine | 100 | – | – | – | 15 | efficiency as surfactant compared with coco amide propyl amine oxide [8]: just as efficient
coconut oil polymer with glyceryl and phthalic anhydride | – | – | >42 | – | – | –
